Reference: patent US10968214B2, “KRas G12C inhibitors” (Eli Lilly and Company, priority 2018, dated 2021)
Values joined by “and” are separate entries in the source; they are usually repeats but may differ in a detail not shown here. Identical values can stand only once. Like-named read-outs stand apart in the source and are kept apart here. One block for each compound: values may come before it.

Key:
[1] = tested on: SW1463; assay: Combination 4 day growth assay (Cell TiterGlo), SW1463; assay type: cell-based; conditions: Homo sapiens, single treatment, read-out: Absolute IC50
Protocol: (§1) Cell lines for this study are obtained from ATCC and grown under ATCC recommended conditions, except for LXFA-983L, which is obtained from Oncotest/Charles Rivers Laboratories, Wilmington, Mass. and D122-96, which is obtained from L. Eisenbach (Weizman Institute of Science, Rehovot, Israel)—both grown under recommended conditions. […] The proliferation assay is performed as a 4 day growth assay using Cell TiterGlo® as the readout. Briefly, cells are plated in 96-well cell culture plates and allowed to adhere overnight at 37° C. The following day, cells are treated with compounds, either single treatments or combination treatments. First, the testing compounds are serially diluted in DMSO, followed by dilution into media as a 5× concentration with 1% DMSO, and finally added to cells in media to dilute to 1×. The cells are incubated at 37° C. for 4 more days. At the end of the incubation period, Cell TiterGlo® reagent is mixed and added to the wells. After 10 minutes, the luminescence is read by a Perkin Elmer Envision instrument. Absolute IC50 values generated by a 4-parameter logistics model for the single and combination treatments are generated, followed by combination indexes for each combination treatment and cell line. The combination IC50 values are adjusted based on the total concentration of each compound when added together. […] The combination index (CI) measures the degree to which the potency of a combination therapy differs from the expected-if-additive potency and is based on the Loewe definition of additivity.
(§2) [formula] Where • CAy and CBy are the concentrations of therapies A and B that produce an effect, y, when given in combination • ICAy and ICBy are the concentrations of A and B that produce an effect, y, when given individually The biological interpretation of the combination index is as follows: synergistic if the combination index <0.5, additive if the combination index is between 0.5 and 2, and antagonistic if the combination index is >2.

[2] = tested on: Calu-1; assay: Combination 4 day growth assay (Cell TiterGlo), Calu-1; assay type: cell-based; conditions: Homo sapiens, single treatment, read-out: Absolute IC50
Protocol: as §1, §2

[3] = tested on: MIA Paca-2; assay: Combination 4 day growth assay (Cell TiterGlo), MIA Paca-2; assay type: cell-based; conditions: Homo sapiens, single treatment, read-out: Absolute IC50
Protocol: as §1, §2

[4] = tested on: H358; assay: Combination 4 day growth assay (Cell TiterGlo), H358; assay type: cell-based; conditions: Homo sapiens, NCI-H358, 96 h, single treatment, read-out: Absolute IC50
Protocol: as §1, §2

[5] = tested on: SW837; assay: Combination 4 day growth assay (Cell TiterGlo), SW837; assay type: cell-based; conditions: Homo sapiens, single treatment, read-out: Absolute IC50
Protocol: as §1, §2

[6] = tested on: D122-96; assay: Combination 4 day growth assay (Cell TiterGlo), D122-96; assay type: cell-based; conditions: Mus musculus, 96 h, single treatment, read-out: Absolute IC50
Protocol: as §1, §2

[7] = tested on: H1373; assay: Combination 4 day growth assay (Cell TiterGlo), H1373; assay type: cell-based; conditions: Homo sapiens, NCI-H1373, 96 h, single treatment, read-out: Absolute IC50
Protocol: (§3) Cell lines for this study are obtained from ATCC and grown under ATCC recommended conditions, except for LXFA-983L, which is obtained from Oncotest/Charles Rivers Laboratories, Wilmington, Mass. and D122-96, which is obtained from L. Eisenbach (Weizman Institute of Science, Rehovot, Israel)—both grown under recommended conditions. […] The proliferation assay is performed as a 4 day growth assay using Cell TiterGlo® as the readout. Briefly, cells are plated in 96-well cell culture plates and allowed to adhere overnight at 37° C. The following day, cells are treated with compounds, either single treatments or combination treatments. First, the testing compounds are serially diluted in DMSO, followed by dilution into media as a 5× concentration with 1% DMSO, and finally added to cells in media to dilute to 1×. The cells are incubated at 37° C. for 4 more days. At the end of the incubation period, Cell TiterGlo® reagent is mixed and added to the wells. After 10 minutes, the luminescence is read by a Perkin Elmer Envision instrument. Absolute IC50 values generated by a 4-parameter logistics model for the single and combination treatments are generated, followed by combination indexes for each combination treatment and cell line. The combination IC50 values are adjusted based on the total concentration of each compound when added together. […]

[8] = tested on: H23; assay: Combination 4 day growth assay (Cell TiterGlo), H23; assay type: cell-based; conditions: Homo sapiens, NCI-H23, 96 h, single treatment, read-out: Absolute IC50
Protocol: as §1, §2

[9] = tested on: H1792; assay: Combination 4 day growth assay (Cell TiterGlo), H1792; assay type: cell-based; conditions: Homo sapiens, NCI-H1792, 96 h, single treatment, read-out: Absolute IC50
Protocol: as §3

[10] = tested on: Kyse-410; assay: Combination 4 day growth assay (Cell TiterGlo), KYSE-410; assay type: cell-based; conditions: Homo sapiens, single treatment, read-out: Absolute IC50
Protocol: as §3

[11] = tested on: SW756; assay: Combination 4 day growth assay (Cell TiterGlo), SW756; assay type: cell-based; conditions: Homo sapiens, single treatment, read-out: Absolute IC50
Protocol: as §3

[12] = tested on: H2030; assay: Combination 4 day growth assay (Cell TiterGlo), H2030; assay type: cell-based; conditions: Homo sapiens, NCI-H2030, 96 h, single treatment, read-out: Absolute IC50
Protocol: as §3

[13] = tested on: UM-UC-3; assay: Combination 4 day growth assay (Cell TiterGlo), UM-UC-3; assay type: cell-based; conditions: Homo sapiens, UMUC3, 96 h, single treatment, read-out: Absolute IC50
Protocol: as §1, §2

[14] = tested on: LXFA-983L; assay: Combination 4 day growth assay (Cell TiterGlo), LXFA-983L; assay type: cell-based; conditions: 96 h, single treatment, read-out: Absolute IC50
Protocol: as §1, §2

[15] = tested on: H2122; assay: Combination 4 day growth assay (Cell TiterGlo), H2122; assay type: cell-based; conditions: Homo sapiens, NCI-H2122, 96 h, single treatment, read-out: Absolute IC50
Protocol: as §1, §2

[16] = tested on: SW1573; assay: Combination 4 day growth assay (Cell TiterGlo), SW1573; assay type: cell-based; conditions: Homo sapiens, 96 h, single treatment, read-out: Absolute IC50
Protocol: as §1, §2

[17] = tested on: H2122 xenograft; assay: Anti-tumor growth activity, lung cancer H2122 xenograft mouse model; assay type: in vivo; conditions: H2122 Lung; Abemaciclib 50 mg/kg QDx28
Protocol: To evaluate in vivo target inhibition and anti-tumor efficacy of a compound, Human lung cancer cells, H358 or H2122 are implanted into nude mice xenograft tumor models. Either H358 or H2122 cells (10×10^6 in a 1:1 Matrigel® mix, 0.2 mL total volume) are implanted by subcutaneous injection in hind leg of nude female mice (Harlan Laboratories). A total of 5 mice each group are used for efficacy study, and a total of 3-4 mice each group are used for target engagement and PD study. Treatment is initiated with oral administration (gavage) of a test compound or vehicle (20% Captisol®, 25 mM phosphate, pH 2.0 in 0.2 mL volume when the tumor size reaches approximately […]. Tumor growth and body weight are monitored over time to evaluate efficacy and signs of toxicity. Bidimensional measurements of tumors are performed twice a week and tumor volumes are calculated based on mid-axis length and mid-axis width. Tumor volume data are transformed to a log scale to equalize variance across time and treatment groups. The log volume data are analyzed with a two-way repeated measures analysis of variance by time and treatment using the mixed procedures in SAS software (version 8.2). The correlation model for the repeated measures is spatial power. Treated groups are compared to the control group at each time point. The mixed procedure is also used separately for each treatment group to calculate adjusted means and standard errors at each time point. Both analyses account for the autocorrelation within each animal. The adjusted means and standard errors are plotted for each treatment group versus time.
H2122 lung tumor cells (10×10^6) are implanted by subcutaneous injection in hind leg of nude female mice (Taconic Biosciences). A total of 5 mice each group are used for efficacy study.

[18] = tested on: SW837 xenograft; assay: Anti-tumor growth activity, SW837 colorectal xenograft; assay type: in vivo; conditions: Abemaciclib 50 mg/kg QDx28
[19] = tested on: SW1463 xenograft; assay: Anti-tumor growth activity, SW1463 colorectal xenograft; assay type: in vivo; conditions: Abemaciclib 50 mg/kg QDx28
[20] = tested on: MiaPaca-2 xenograft; assay: Anti-tumor growth activity, MiaPaca-2 pancreatic xenograft; assay type: in vivo; conditions: Abemaciclib 50 mg/kg QDx28
[21] = tested on: EL3187 (PDX); assay: Anti-tumor growth activity, EL3187 lung PDX; assay type: in vivo; conditions: EL3187 Lung PDX; Erlotinib 25 mg/kg QDx28

IC50 ([1]; 96 h): 328 nM
IC50 ([2]; 96 h): > 10000 nM
IC50 ([3]; 96 h): 755 nM
IC50 [4]: 1230 nM
IC50 ([5]; 96 h): 3590 nM
IC50 [7]: > 10000 nM
IC50 [9]: 1100 nM
IC50 ([11]; 96 h): 4980 nM
IC50 [12]: 9030 nM
IC50 [15]: 548 nM
IC50 [16]: 996 nM
Structure (SMILES): CCN1CCN(Cc2ccc(Nc3ncc(F)c(-c4cc(F)c5nc(C)n(C(C)C)c5c4)n3)nc2)CC1 [Abemaciclib, abemaciclib]
IC50 [6]: 5050 nM
IC50 [8]: 4970 nM
IC50 ([10]; 96 h): 3010 nM
IC50 [13]: 1720 nM
IC50 [14]: > 10000 nM
Tumor Growth Inhibition (%) or Regression (−%) [17]: 79.3 and 79.1
In Vivo Anti-Tumor Activities [18]: −2.13
In Vivo Anti-Tumor Activities [19]: 55.1
In Vivo Anti-Tumor Activities [20]: 46.88

IC50 ([1]; SW1463, 96 h): 446 nM
IC50 ([2]; Calu-1, 96 h): > 10000 nM
IC50 ([3]; MIA PaCa-2, 96 h): > 10000 nM
IC50 [4]: 247 nM
IC50 ([5]; SW837, 96 h): > 10000 nM
IC50 [7]: > 10000 nM
IC50 [9]: > 10000 nM
IC50 ([11]; SW756, 96 h): > 10000 nM
IC50 [12]: 1480 nM
IC50 [15]: 352 nM
IC50 [16]: > 10000 nM
Structure (SMILES): C#Cc1cccc(Nc2ncnc3cc(OCCOC)c(OCCOC)cc23)c1 [Erlotinib, erlotinib]
IC50 [6]: > 10000 nM
IC50 [8]: > 10000 nM
IC50 ([10]; KYSE-410, 96 h): 469 nM
IC50 [13]: > 10000 nM
IC50 ([14]; LXFA 983L): 2820 nM
In Vivo Anti-Tumor Activities [21]: 7.8
